# Laboratory results taken from patent US20230201161A1, “Combination comprising HDAC inhibitor, LAG-3 inhibitor and a PD-1 inhibitor or PD-L1 inhibitor for cancer treatment” (4SC AG, priority 2018, published 2023).
# Experiments:
# [1] = test system: different types of blood cancer; settings: cited from earlier work
# [2] = test system: Colon 38 (C38, a C57BL/6J mouse colon adenocarcinoma cell line) tumor; assay: C38 (Colon 38) subcutaneous tumor model, tumor volume; assay type: in vivo; settings: female C57BL/6J mice, 20 per group; 4SC-202 20 mg/kg PO twice daily x24; antibodies 10 mg/kg IP (anti-PD1 TWx2, anti-LAG-3 Q3Dx4); data to day 27
# Method: • 4SC-202 (tosylate salt). • Anti-PD1 antibody (clone: RMP1-14, catalog: BE0146, isotype: Rat IgG2a, Bioxcell), • Anti-LAG-3 antibody (clone: C9B7W, catalog: BE0174, isotype: Rat lgG1, Bioxcell),
# • 4SC-202 was suspended in 2% aqueous methocel solution at 2 mg/ml (active compound). • Anti-PD-1 and anti-LAG3 antibody was diluted with PBS in order to reach final concentration of 1 mg/ml.
# • 4SC-202 was administered at 20 mg/kg twice daily, based on 4SC-202 free base. • The anti-PD-1 and anti-LAG3 antibody was injected at 10 mg/kg per injection,
# • 4SC-202 was administered by oral gavage (per os, PO) via a gavage tube. • The antibodies were injected intraperitoneally into the peritoneal cavity of mice. • In all cases, the administration volume was 10 mUkg adjusted to the most recent individual body weight of mice.
# Colon 38 (C38, a C57BL/6J mouse colon adenocarcinoma cell line) tumor fragments.
# The C38 fragments are stored frozen in DMSO/SVF/RPMI 1640 medium (10/10/80) in liquid nitrogen until use. In the study part 1, C38 frozen fragments were thawed at 37° C. for 5 min, rinsed twice in RPMI 1640 medium before subcutaneous (SC) implantation in mice.
# Thirty-five (35) female C57BL/6J mice were subcutaneously implanted into the right flank with C38 tumor fragments. […]
# [3] = 24 heavily pre-treated patients with different types of blood cancer
structure (smiles),measurement,setting,value
"Cn1cc(-c2ccc(S(=O)(=O)n3ccc(/C=C/C(=O)Nc4ccccc4N)c3)cc2)cn1 [Compound 4SC-202, (E)-N-(2-aminophenyl)-3-(1-((4-(1-methyl-1H-pyrazol-4-yl)phenyl)sulfonyl)-1H-pyrrol-3-yl)acrylamide]",disease control,[1]; [3],83 % of the patients
same,long-term stabilization,[1]; [3],50 % of patients
same,tolerability,[1]; [3],well tolerated with few and/or manageable adverse events
same,"complete remission, duration",[1]; one complete remission among 24 heavily pre-treated patients,28 months
same,"partial responder, duration",[1]; one partial responder among 24 heavily pre-treated patients,8 months
same,tumor growth reduction / anti-tumoral efficacy (in words),[2],reduced tumor growth to a certain extent
